# According to patent publication US12660819B2, “Herbicidal derivatives” (SYNGENTA CROP PROTECTION AG, priority 2020, dated 2026):
# What was measured:
# Assay type in all cases: in vivo
# Zea mays (ZEAMX) [1] = assay: Pre-emergence Test (glasshouse, percentage damage to the plant); details: 1000 g/ha unless otherwise stated, five-point scale
# [2] = system: Echinochloa crus-galli (ECHCG); assay: as above; details: 1000 g/ha unless otherwise stated, five-point scale
# [3] = system: Amaranthus retoflexus (AMARE); assay: as above; details: 1000 g/ha unless otherwise stated, five-point scale
# [4] = system: Abutilon theophrasti (ABUTH); assay: as above; details: 1000 g/ha unless otherwise stated, five-point scale
# Setaria faberi (SETFA) [5] = assay: as above; details: 1000 g/ha unless otherwise stated, five-point scale
# [6] = system: Ipomoea hederacea (IPOHE); assay: as above; details: 1000 g/ha unless otherwise stated, five-point scale
# [7] = system: Ipomoea hederacea (IPOHE); assay: Post-emergence Test (glasshouse, percentage damage to the plant); details: post-emergence spray, 1000 g/ha unless otherwise stated, evaluated after 13 days
# Protocol: (§1) Seeds of a variety of test species are sown in standard soil in pots (Amaranthus retoflexus (AMARE), Solanum nigrum (SOLNI), Setaria faberi (SETFA), Lolium perenne (LOLPE), Echinochloa crus-galli (ECHCG), Ipomoea hederacea (IPOHE), Abutilon theophrasti (ABUTH), Zea mays (ZEAMX), Amaranthus palmeri (AMAPA). After 8 days cultivation under controlled conditions in a glasshouse (at 24° C./16° C., day/night; 14 hours light; 65% humidity), the plants are sprayed with an aqueous spray solution derived from the formulation of the technical active ingredient in acetone/water (50:50) solution containing 0.5% Tween 20 (polyoxyethelyene sorbitan monolaurate, CAS RN 9005-64-5). Compounds are applied at 1000 g/ha unless otherwise stated. The test plants are then grown in a glasshouse under controlled conditions in a glasshouse (at 24° C./16° C., day/night; 14 hours light; 65% humidity) and watered twice daily. After 13 days the test is evaluated for the percentage damage caused to the plant. The biological activities are shown in the following table on a five-point scale (5=81-100%; 4=61-80%; 3=41-60%; 2=21-40%; 1=0-20%).
# Zea mays (ZEAMX) [8] = assay: as above; details: post-emergence spray, 1000 g/ha unless otherwise stated, evaluated after 13 days
# Protocol: as §1
# Setaria faberi (SETFA) [9] = assay: as above; details: post-emergence spray, 1000 g/ha unless otherwise stated, evaluated after 13 days
# Protocol: as §1
# [10] = system: Echinochloa crus-galli (ECHCG); assay: as above; details: post-emergence spray, 1000 g/ha unless otherwise stated, evaluated after 13 days
# Protocol: as §1
# [11] = system: Amaranthus retoflexus (AMARE); assay: as above; details: post-emergence spray, 1000 g/ha unless otherwise stated, evaluated after 13 days
# Protocol: as §1
SMILES,"percentage damage to the plant, ZEAMX (Zea mays (ZEAMX) [1])","percentage damage to the plant, ECHCG [2]","percentage damage to the plant, AMARE [3]","percentage damage to the plant, ABUTH [4]","percentage damage to the plant, SETFA (Setaria faberi (SETFA) [5])","percentage damage to the plant, IPOHE [6]","Post-emergence Test IPOHE, percentage damage to the plant (five-point scale) [7]","Post-emergence Test ZEAMX, percentage damage to the plant (five-point scale) (Zea mays (ZEAMX) [8])","Post-emergence Test SETFA, percentage damage to the plant (five-point scale) (Setaria faberi (SETFA) [9])","Post-emergence Test ECHCG, percentage damage to the plant (five-point scale) [10]","Post-emergence Test AMARE, percentage damage to the plant (five-point scale) [11]"
"CCn1c(C)c(-c2ccc(F)c(C#N)c2)c(=O)c(C(=O)O)c1-c1ccc(Cl)cc1 [Compound 174, 2-(4-chlorophenyl)-5-(3-cyano-4-fluoro-phenyl)-1-ethyl-6-methyl-4-oxo-pyridine-3-carboxylic acid]",1 (1=0-20%),3 (3=41-60%),1 (1=0-20%),1 (1=0-20%),2 (2=21-40%),1 (1=0-20%),4 (4=61-80%),1 (1=0-20%),3 (3=41-60%),2 (2=21-40%),2 (2=21-40%)
"CCn1c(C)c(-c2cc(Cl)c(F)c(Cl)c2)c(=O)c(C(=O)O)c1-c1ccc(Cl)cc1 [Compound 178, 2-(4-chlorophenyl)-5-(3,5-dichloro-4-fluoro-phenyl)-1-ethyl-6-methyl-4-oxo-pyridine-3-carboxylic acid]",0,0,0,0,0,0,1 (1=0-20%),1 (1=0-20%),0,1 (1=0-20%),1 (1=0-20%)
"CCn1c(C)c(-c2cc(F)ccc2Cl)c(=O)c(C(=O)O)c1-c1ccc(Cl)cc1 [Compound 175, 5-(2-chloro-5-fluoro-phenyl)-2-(4-chlorophenyl)-1-ethyl-6-methyl-4-oxo-pyridine-3-carboxylic acid]",1 (1=0-20%),1 (1=0-20%),0,0,2 (2=21-40%),3 (3=41-60%),3 (3=41-60%),1 (1=0-20%),3 (3=41-60%),2 (2=21-40%),1 (1=0-20%)
"CCOc1cc(-c2c(C)n(CC)c(-c3ccc(Cl)cc3)c(C(=O)O)c2=O)ccc1C(F)(F)F [Compound 176, 2-(4-chlorophenyl)-5-[3-ethoxy-4-(trifluoromethyl)phenyl]-1-ethyl-6-methyl-4-oxo-pyridine-3-carboxylic acid]",0,–,0,0,0,0,1 (1=0-20%),1 (1=0-20%),1 (1=0-20%),1 (1=0-20%),2 (2=21-40%)
"CCn1c(C)c(-c2cc(Cl)ccc2Cl)c(=O)c(C(=O)O)c1-c1ccc(Cl)cc1 [Compound 185, 2-(4-chlorophenyl)-5-(2,5-dichlorophenyl)-1-ethyl-6-methyl-4-oxo-pyridine-3-carboxylic acid]",0,0,0,0,0,0,2 (2=21-40%),1 (1=0-20%),3 (3=41-60%),–,3 (3=41-60%)
